Results on six molecules are retold here after patent EP0130882A2, “Bicyclo(3.2.1)octane carboxylic-acid derivatives, processes for their preparation and their therapeutical use” (SANOFI, priority 1983, dated 1985).

Like-named read-outs stand apart in the source and are kept apart here.

The test system of series [1] is Crise à l'acide B - mercaptopropionique. In words: B-mercaptopropionic acid seizure test. Type of series: in vivo, souris. The following applies: oral, 15 min before acide B-mercaptopropionique 60 mg/Kg I.P., mouse; read-out: DE 50 (the source's name). An excerpt:
(§1) L'invention a donc encore pour objet un médicament ayant en particulier des activités anticonvulsivante et antianoxique caractérisé en ce qu'il contient, à titre de principe actif un dérivé de formule I. Tous les essais Toxico-pharmacologiques ont été pratiqués sur des souris mâles de souche CHARLES RIVER (CD1).
L'acide B-mercaptopropionique est un inhibiteur de la glutamate-décarboxylase (GAD), enzyme qui catalyse la transformation du glutamate en acide Y-aminobutyrique (GABA). Son action se traduit donc par un abaissemement du taux de ŒBA et la survenue de crises généralisées tonico-cloniques 3 à 4 minutes après son administration. L'acide B-mercaptopropionique a été administré aux souris par voie I.P. à la dose de 60 mg/Kg. Le traitement pour les composés à tester est administré par la voie orale 15 minutes avant l'injection d'acide B-mercaptopionique. Les DE 50 exprimées en mg/Kg, ainsi déterminées sont : • Composé N° 2 = 90 • 5 = 30 • 6 = 60 • 7 = 120 • 8 = 70

The next series relates to anoxie par confinement. The series is described as follows: Anoxia by confinement (antianoxic activity, survival time). The series is classed as in vivo, souris. The following applies: I.P. immediately before placing in closed 200 ml vessel, mouse; dose not given.
Description: as §1
Cette activité a été étudiée par la méthode de l'anoxie par confinement.
Des souris (20 par lot) sont placées dans une enceinte (bocal en verre) normobare, normoxique, hermétiquement close de 200 ml. Tous les traitements sont administrés par voie I.P. immédiatement avant l'introduction dans l'enceinte. L'animal est considéré comme mort au moment de l'arrêt respiratoire.
Les bocaux choisis étant très petits, l'activité motrice des animaux est extrêmement faible, ce qui élimine en principe la possibilité d'un résultat positif par effet sédatif. On note dans chaque lot le temps de survie des animaux.

The next series concerns Crise pentétrazolique. In words: Pentetrazole seizure test (protection against tonic seizures). The series is classed as in vivo, souris. The following applies: read-out: DE 50 (protection contre les crises toniques). An excerpt: On note dans chaque lot le pourcentage de protection contre les crises toniques.
A short description of a further series: in vivo. The note with it: mouse, po. Also on record: species or system souris.
Description: as §1
Dans le cadre de cette étude, on a déterminé l'activité sédative des composés de l'invention; on a utilisé dans ce but, le test du cylindre tournant (Boissier, J.R., Therapie 1958, 13,1074).
Ce test est destiné à apprécier l'aptitude des animaux à coordonner leurs mouvements. Il met en oeuvre un cylindre de bois, d'un diamètre de 4,8 cm, qui-tourne à la vitesse de 4 tours/mn. Le test est pratiqué sur des souris d'un poids 22 g environ. Les produits sont administrés par voie orale à différents lots de 10 animaux. Ces derniers sont placés sur l'appareil 15 minutes après l'administration du produit. On note le pourcentage de souris qui perdent le réflexe d'équilibration, c'est-à-dire qui deviennent incapables de se maintenir sur le cycindre pendant une durée de 2 minutes.
Par la méthode de Finney, on calcule une dose neuroto- xique 50 (DNT 50) qui exprime donc le niveau moyen -des premières atteintes neuromusculaires sous l'influence d'un produit étudié.

In series [2] the test system is Crise électrique supramaximale. The series is described as follows: Supramaximal electroshock seizure test. The following applies: po, 0.5 h; per os, 30 min before supramaximal electroshock (50 HZ, 60 volts, 0,4 sec.), mouse; read-out: DE 50 (hyperextension tonique). Type of series: in vivo, souris.
Description: as §1
Cette expérimentation a été effectuée selon le test de Swinyard et al., (Am.J.Pharmacol, Ther., 1952,168-175). Les traitements ont été administrés per os à des lots de 10 souris 30 mn, avant l'électrochoc supramaximal (courant alternatif de 50 HZ, 60 volts pendant 0,4 sec.) délivré par l'intermédiaire d'électrodes intra-auriculaires. On note le nombre d'animaux dans chaque lot qui ne présentent pas d'hy- perextension tonique lors de la stimulation électrique trans- cranienne, et on détermine la DE 50 exprimée en mg/Kg.
For orientation: The maximal electroshock test induces tonic seizures with an electrical stimulus.

For a further series, the system named is Crise à la bicuculline. The series is described as follows: Bicuculline seizure test. The series is classed as in vivo, souris. The note with it: oral, 30 min before bicuculline 0.65 mg/Kg i.v., observed for 30 min, mouse; read-out: DE 50 (convulsions toniques).
Description: as §1
Ce test a été effectué selon la méthode de Pérez de la Mora et Tapia (Biochem. Pharmacol., 1973,19,303-310). Les traitements ont été administrés par voie orale à des lots de 10 souris, 30 minutes avant l'injection de bicuculline (0.65 mg/Kg) par la voie intraveineuse. L'apparition des convulsions toniques a été notée pendant les 30 mn qui ont suivi l'injection de bicuculline. Les DE 50 en mg/Kg ainsi déterminées sont : • Composé N° 5 = 68 • 6 = 61 • 7 = 145 • 8 = 75

A short description of series [3]: Acute oral toxicity (DL 50, Finney method). Further details: species or system souris. The following applies: in vivo, mouse. The method, then:
as §1
Ainsi, la DL 50 déterminée par voie orale chez la souris par la méthode Finney(Probit analysis, University Press Cambridge.,. 1971) est de 3000 mg/Kg pour le dérivé N° 5'et supérieure à 1000 mg/Kg pour tous les composés de l'invention.

Setting [4] is: oral, 15 min before pentétrazole 125 mg/Kg i.p., mouse.

In general, LD50 refers to the dose at which mortality reaches 50%. Higher therefore signals a less toxic substance.

With `CC1(C(=O)O)CC2CCC(C2)C1` (stereo not shown) [dérivé N° 2, Méthyl-3 bicyclo (3.2.1.) octane carboxylate -3 de sodium], the ED50 in series [1] was found to be 90 mg/kg; in the series on Crise pentétrazolique (setting [4]), 90 mg/kg; in series [2], 400 mg/kg. In addition, the “temps de survie augmenté” value with anoxie par confinement is 15 p 100. For the same molecule, the TD50 at 0.25 h in the series “in vivo” turned out to be 600 mg/kg.
`CC1(C(N)=O)CC2CCC(C2)C1` (stereo not shown) [dérivé N° 5, Méthyl-3 bicyclo (3.2.1.) octane carboxamide-3]: the ED50 in the series on Crise à la bicuculline came out at 68 mg/kg; in series [1], 30 mg/kg; in the series with Crise pentétrazolique (setting [4]), 53 mg/kg; in series [2] it was 210 mg/kg. Also, the “temps de survie augmenté” value in the series on anoxie par confinement turned out to be 25 p 100. The same molecule had a median lethal dose (LD50) in series [3] of 3000 mg/kg. Also, the TD50 at 0.25 h in the series “in vivo” amounted to 365 mg/kg.
Regarding `CCC1(C(N)=O)CC2CCC(C2)C1` (stereo not shown) [dérivé N° 6, Ethyl-3 bicyclo (3.2.1.) octane carboxamide-3], the ED50 was determined as 61 mg/kg in the series with Crise à la bicuculline, 60 mg/kg in series [1], 75 mg/kg with Crise pentétrazolique (setting [4]) and 210 mg/kg in series [2]. This molecule also had a TD50 at 0.25 h in the series “in vivo” of 400 mg/kg.
In the same order, the values of `CC(C)C1(C(N)=O)CC2CCC(C2)C1` (stereo not shown) [dérivé N° 7, Isopropyl-3 bicyclo (3.2.1.) octane carboxamide -3] are 145 mg/kg, 120 mg/kg, 120 mg/kg, 260 mg/kg and 230 mg/kg.
In the same order, the values of `CNC(=O)C1(C)CC2CCC(C2)C1` (stereo not shown) [dérivé N° 8, N-Méthyl mêthyl-3 bicyclo (3.2.1.) octane carboxamide-3] are 75 mg/kg, 70 mg/kg, 115 mg/kg, 310 mg/kg and 500 mg/kg.
In the case of `CCCC(CCC)C(=O)O` [valproate de sodium, reference compound], the ED50 with Crise pentétrazolique (Mus musculus, po) worked out at 200 mg/kg.
